How the values were obtained:
Assay in all cases: KINOMEscan competition binding
Conditions in all cases: compound 10.0 µM
HIPK3 (human) = HIPK3 (human) (UniProt Q9H422)
FYN (human) = FYN (human) (UniProt P06241)
CDKL2 (human) = CDKL2 (human) (UniProt Q92772)
MAP4K4 (human) = MAP4K4 (human) (UniProt O95819)
LYN (human) = LYN (human) (UniProt P07948)
PTK2 (human) = PTK2 (human) (UniProt Q05397)
NEK5 (human) = NEK5 (human) (UniProt Q6P3R8)
EPHA4 (human) = EPHA4 (human) (UniProt P54764)
RAF1 (human) = RAF1 (human) (UniProt P04049)
TESK1 (human) = TESK1 (human) (UniProt Q15569)
PRKACA (human) = PRKACA (human) (UniProt P17612)
TNK1 (human) = TNK1 (human) (UniProt Q13470)
RIOK3 (human) = RIOK3 (human) (UniProt O14730)
SLK (human) = SLK (human) (UniProt Q9H2G2)
BRSK2 (human) = BRSK2 (human) (UniProt Q8IWQ3)
FGFR4 (human) = FGFR4 (human) (UniProt P22455)
SYK (human) = SYK (human) (UniProt P43405)
CDC42BPA (human) = CDC42BPA (human) (UniProt Q5VT25)
TXK (human) = TXK (human) (UniProt P42681)
MINK1 (human) = MINK1 (human) (UniProt Q8N4C8)
TNIK (human) = TNIK (human) (UniProt Q9UKE5)
PKN1 (human) = PKN1 (human) (UniProt Q16512)
MARK4 (human) = MARK4 (human) (UniProt Q96L34)
PAK1 (human) = PAK1 (human) (UniProt Q13153)
ULK1 (human) = ULK1 (human) (UniProt O75385)
ACVR2A (human) = ACVR2A (human) (UniProt P27037)
CSNK1E (human) = CSNK1E (human) (UniProt P49674)
ROS1 (human) = ROS1 (human) (UniProt P08922)
PLK4 (human) = PLK4 (human) (UniProt O00444)
FGFR1 (human) = FGFR1 (human) (UniProt P11362)
MAPK8 (human) = MAPK8 (human) (UniProt P45983)
MAP2K6 (human) = MAP2K6 (human) (UniProt P52564)
MYO3B (human) = MYO3B (human) (UniProt Q8WXR4)
PRKACB (human) = PRKACB (human) (UniProt P22694)
SGK3 (human) = SGK3 (human) (UniProt Q96BR1)
MAP4K3 (human) = MAP4K3 (human) (UniProt Q8IVH8)
CDK15 (human) = CDK15 (human) (UniProt Q96Q40)
GRK4 (human) = GRK4 (human) (UniProt P32298)
ITK (human) = ITK (human) (UniProt Q08881)
[1] = system: FLT3 (human), P36888 [D835H]
[2] = system: RET (human), P07949 [V804M]

Sequence of CDKL2 (human) (Q92772 whole entry, looked up): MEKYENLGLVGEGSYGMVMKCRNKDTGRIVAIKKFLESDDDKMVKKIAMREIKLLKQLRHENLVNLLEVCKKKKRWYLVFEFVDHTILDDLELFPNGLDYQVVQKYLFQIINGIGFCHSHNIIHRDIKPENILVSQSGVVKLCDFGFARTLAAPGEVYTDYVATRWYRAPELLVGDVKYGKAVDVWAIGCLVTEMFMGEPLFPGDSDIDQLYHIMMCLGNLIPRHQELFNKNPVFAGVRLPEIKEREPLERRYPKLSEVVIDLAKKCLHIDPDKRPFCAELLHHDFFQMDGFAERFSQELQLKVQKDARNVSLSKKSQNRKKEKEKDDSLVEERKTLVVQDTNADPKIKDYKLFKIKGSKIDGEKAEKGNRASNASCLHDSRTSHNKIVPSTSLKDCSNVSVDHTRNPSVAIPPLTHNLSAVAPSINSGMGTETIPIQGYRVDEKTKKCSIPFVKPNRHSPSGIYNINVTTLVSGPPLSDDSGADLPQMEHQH
Sequence of TNK1 (human) (Q13470 whole entry, looked up): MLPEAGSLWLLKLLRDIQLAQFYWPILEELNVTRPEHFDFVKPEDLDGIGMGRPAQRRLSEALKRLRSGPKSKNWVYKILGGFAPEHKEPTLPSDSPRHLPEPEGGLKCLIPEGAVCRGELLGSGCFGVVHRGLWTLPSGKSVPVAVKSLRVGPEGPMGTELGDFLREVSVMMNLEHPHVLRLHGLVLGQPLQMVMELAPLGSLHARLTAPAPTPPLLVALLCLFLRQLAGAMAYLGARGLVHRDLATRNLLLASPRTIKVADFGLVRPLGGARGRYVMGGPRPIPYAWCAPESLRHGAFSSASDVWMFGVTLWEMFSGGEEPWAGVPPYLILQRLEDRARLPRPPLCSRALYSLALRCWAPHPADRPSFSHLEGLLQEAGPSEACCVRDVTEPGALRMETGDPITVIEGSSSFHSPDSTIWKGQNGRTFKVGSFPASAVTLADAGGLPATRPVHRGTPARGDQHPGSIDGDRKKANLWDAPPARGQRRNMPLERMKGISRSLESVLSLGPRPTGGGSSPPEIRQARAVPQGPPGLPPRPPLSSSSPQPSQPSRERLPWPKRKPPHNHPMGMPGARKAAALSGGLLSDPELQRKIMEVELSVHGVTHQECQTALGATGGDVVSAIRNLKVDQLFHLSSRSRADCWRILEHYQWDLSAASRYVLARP
Sequence of ACVR2A (human) (P27037 whole entry, looked up): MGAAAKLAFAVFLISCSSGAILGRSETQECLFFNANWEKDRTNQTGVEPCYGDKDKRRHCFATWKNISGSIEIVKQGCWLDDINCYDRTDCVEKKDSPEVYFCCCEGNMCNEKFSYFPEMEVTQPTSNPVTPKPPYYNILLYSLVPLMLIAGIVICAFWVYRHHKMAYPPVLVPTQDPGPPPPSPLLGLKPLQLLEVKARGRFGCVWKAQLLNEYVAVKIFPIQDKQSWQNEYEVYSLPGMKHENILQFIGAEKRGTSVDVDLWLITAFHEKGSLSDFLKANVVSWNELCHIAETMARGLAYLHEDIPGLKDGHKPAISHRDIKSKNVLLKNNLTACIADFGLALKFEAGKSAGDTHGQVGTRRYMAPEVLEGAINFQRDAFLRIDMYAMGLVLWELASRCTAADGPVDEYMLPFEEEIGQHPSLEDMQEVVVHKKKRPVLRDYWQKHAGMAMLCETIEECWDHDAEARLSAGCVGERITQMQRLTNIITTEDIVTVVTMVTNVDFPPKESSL
Sequence of MYO3B (human) (Q8WXR4 whole entry, looked up): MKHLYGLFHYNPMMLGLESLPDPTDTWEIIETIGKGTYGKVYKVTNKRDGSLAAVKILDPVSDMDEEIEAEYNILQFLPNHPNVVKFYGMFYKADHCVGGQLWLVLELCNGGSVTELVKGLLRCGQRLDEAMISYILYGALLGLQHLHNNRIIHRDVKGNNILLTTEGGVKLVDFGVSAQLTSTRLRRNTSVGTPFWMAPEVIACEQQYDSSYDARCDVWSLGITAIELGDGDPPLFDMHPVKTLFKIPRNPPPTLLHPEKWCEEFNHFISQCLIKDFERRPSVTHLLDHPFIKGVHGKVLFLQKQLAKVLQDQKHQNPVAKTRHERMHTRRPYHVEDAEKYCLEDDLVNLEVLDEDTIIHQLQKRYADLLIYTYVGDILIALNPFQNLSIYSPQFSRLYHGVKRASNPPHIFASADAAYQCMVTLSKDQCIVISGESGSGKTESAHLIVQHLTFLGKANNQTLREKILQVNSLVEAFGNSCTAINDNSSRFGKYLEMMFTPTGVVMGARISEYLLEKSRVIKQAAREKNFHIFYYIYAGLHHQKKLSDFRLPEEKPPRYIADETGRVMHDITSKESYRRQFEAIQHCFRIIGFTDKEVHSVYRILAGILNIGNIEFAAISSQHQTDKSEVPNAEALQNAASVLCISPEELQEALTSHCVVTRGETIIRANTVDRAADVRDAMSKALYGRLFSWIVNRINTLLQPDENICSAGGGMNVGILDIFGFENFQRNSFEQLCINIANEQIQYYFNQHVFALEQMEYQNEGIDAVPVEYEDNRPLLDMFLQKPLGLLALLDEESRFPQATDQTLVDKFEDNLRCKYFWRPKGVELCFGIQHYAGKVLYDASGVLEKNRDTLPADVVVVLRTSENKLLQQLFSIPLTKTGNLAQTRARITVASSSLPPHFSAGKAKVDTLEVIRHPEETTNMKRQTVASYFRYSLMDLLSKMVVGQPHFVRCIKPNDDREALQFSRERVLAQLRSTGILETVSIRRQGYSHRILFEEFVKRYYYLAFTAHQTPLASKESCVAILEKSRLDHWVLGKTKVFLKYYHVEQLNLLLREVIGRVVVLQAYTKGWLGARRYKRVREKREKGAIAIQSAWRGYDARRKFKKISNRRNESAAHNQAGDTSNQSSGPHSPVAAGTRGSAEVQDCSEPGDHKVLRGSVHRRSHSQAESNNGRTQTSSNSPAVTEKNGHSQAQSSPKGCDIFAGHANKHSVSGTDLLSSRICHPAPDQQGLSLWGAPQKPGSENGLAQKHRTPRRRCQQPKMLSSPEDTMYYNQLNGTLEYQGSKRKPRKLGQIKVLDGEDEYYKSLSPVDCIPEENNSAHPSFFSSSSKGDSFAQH
Sequence of TESK1 (human) (Q15569 whole entry, looked up): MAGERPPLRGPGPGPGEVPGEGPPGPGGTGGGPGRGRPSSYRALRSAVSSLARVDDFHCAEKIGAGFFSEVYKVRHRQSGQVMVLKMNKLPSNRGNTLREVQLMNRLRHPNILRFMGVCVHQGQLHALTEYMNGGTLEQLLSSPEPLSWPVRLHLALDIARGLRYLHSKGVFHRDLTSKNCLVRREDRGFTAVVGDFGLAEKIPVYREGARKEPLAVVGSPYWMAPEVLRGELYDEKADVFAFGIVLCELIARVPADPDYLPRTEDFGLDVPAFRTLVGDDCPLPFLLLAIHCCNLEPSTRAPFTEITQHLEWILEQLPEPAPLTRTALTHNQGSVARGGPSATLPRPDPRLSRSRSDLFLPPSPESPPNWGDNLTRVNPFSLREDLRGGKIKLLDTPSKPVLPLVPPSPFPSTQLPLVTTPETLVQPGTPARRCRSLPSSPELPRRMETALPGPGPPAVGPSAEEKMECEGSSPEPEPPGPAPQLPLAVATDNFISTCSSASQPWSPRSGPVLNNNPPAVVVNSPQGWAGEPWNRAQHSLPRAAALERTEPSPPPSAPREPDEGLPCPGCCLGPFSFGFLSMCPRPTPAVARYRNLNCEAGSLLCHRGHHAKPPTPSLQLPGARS
Sequence of PLK4 (human) (O00444 whole entry, looked up): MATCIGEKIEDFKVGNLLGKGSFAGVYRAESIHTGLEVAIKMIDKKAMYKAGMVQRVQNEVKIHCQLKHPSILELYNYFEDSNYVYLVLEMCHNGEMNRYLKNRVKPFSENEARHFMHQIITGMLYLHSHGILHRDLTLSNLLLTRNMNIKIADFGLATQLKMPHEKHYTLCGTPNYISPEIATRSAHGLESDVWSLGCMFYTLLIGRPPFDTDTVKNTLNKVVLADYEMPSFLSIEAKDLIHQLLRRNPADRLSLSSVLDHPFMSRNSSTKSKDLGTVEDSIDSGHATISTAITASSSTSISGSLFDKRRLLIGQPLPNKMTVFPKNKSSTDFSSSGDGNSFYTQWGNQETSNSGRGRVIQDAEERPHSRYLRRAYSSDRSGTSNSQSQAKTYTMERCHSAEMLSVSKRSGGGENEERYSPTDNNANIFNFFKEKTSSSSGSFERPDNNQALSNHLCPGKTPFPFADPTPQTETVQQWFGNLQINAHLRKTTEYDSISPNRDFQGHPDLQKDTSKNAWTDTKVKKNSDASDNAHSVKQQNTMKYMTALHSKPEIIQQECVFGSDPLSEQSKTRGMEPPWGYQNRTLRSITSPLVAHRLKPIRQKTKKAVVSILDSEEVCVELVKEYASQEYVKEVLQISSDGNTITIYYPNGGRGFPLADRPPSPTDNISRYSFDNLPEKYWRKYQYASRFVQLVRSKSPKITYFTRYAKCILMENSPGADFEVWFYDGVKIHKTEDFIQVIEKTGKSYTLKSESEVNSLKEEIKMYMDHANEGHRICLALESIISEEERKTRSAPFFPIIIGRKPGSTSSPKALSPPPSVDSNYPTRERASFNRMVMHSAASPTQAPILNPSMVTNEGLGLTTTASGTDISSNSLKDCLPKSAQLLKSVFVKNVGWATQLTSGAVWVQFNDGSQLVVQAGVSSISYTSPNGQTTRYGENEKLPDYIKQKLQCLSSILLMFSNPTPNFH
Sequence of MAPK8 (human) (P45983 whole entry, looked up): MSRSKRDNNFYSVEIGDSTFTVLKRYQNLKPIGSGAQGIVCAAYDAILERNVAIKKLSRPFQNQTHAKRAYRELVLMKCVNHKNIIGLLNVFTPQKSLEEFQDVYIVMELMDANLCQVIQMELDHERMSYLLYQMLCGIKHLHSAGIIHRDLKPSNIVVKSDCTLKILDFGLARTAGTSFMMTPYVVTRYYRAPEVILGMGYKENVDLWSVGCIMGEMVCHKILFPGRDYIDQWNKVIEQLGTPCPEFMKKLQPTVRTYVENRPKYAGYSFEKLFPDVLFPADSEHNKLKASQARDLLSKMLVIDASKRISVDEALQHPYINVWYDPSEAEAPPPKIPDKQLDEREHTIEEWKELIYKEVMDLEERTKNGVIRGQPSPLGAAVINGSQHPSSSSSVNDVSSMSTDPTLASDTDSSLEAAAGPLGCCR

Row | Structure (SMILES) | kinase still bound, per cent of control (HIPK3 (human)) [%] | kinase still bound, per cent of control (FYN (human)) [%] | kinase still bound, per cent of control (CDKL2 (human)) [%] | kinase still bound, per cent of control (LYN (human)) [%] | kinase still bound, per cent of control (NEK5 (human)) [%] | kinase still bound, per cent of control (EPHA4 (human)) [%] | kinase still bound, per cent of control (RAF1 (human)) [%] | kinase still bound, per cent of control (PRKACA (human)) [%] | kinase still bound, per cent of control (TNK1 (human)) [%] | kinase still bound, per cent of control (RIOK3 (human)) [%] | kinase still bound, per cent of control (SLK (human)) [%] | kinase still bound, per cent of control (BRSK2 (human)) [%] | kinase still bound, per cent of control (FGFR4 (human)) [%] | kinase still bound, per cent of control (CDC42BPA (human)) [%] | kinase still bound, per cent of control (TXK (human)) [%] | kinase still bound, per cent of control (MINK1 (human)) [%] | kinase still bound, per cent of control (TNIK (human)) [%] | kinase still bound, per cent of control (PKN1 (human)) [%] | kinase still bound, per cent of control (MARK4 (human)) [%] | kinase still bound, per cent of control (PAK1 (human)) [%] | also measured
1 | N#CCNC(=O)c1ccc(-c2ccnc(Nc3ccc(N4CCOCC4)cc3)n2)cc1 | 17 | 78 | 69 | 94 | 2.4 | 100 | 100 | 96 | 33 | 0 | 100 | 100 | 91 | 67 | 100 | 82 | 59 | 66 | 42 | 100 | kinase still bound, per cent of control (MAP4K4 (human)): 85%; kinase still bound, per cent of control (PTK2 (human)): 85%; kinase still bound, per cent of control (TESK1 (human)): 100%; kinase still bound, per cent of control (SYK (human)): 32%; kinase still bound, per cent of control (ULK1 (human)): 40%; kinase still bound, per cent of control (ACVR2A (human)): 75%; kinase still bound, per cent of control (CSNK1E (human)): 100%; kinase still bound, per cent of control (ROS1 (human)): 100%; kinase still bound, per cent of control (PLK4 (human)): 15%; kinase still bound, per cent of control (FGFR1 (human)): 86%; kinase still bound, per cent of control (MAPK8 (human)): 1%; kinase still bound, per cent of control (MAP2K6 (human)): 77%; kinase still bound, per cent of control (MYO3B (human)): 100%; kinase still bound, per cent of control (PRKACB (human)): 36%; kinase still bound, per cent of control (SGK3 (human)): 59%; kinase still bound, per cent of control (MAP4K3 (human)): 57%; kinase still bound, per cent of control (CDK15 (human)): 58%; kinase still bound, per cent of control (GRK4 (human)): 10%; kinase still bound, per cent of control (ITK (human)): 98%
2 | C[C@@H](Oc1cc(-c2cnn(C3CCNCC3)c2)cnc1N)c1c(Cl)ccc(F)c1Cl | 92 | 10 | 5.4 | 13 | 63 | 6 | 93 | 100 | 7.1 | 3.4 | 0.1 | 65 | 98 | 43 | 5.9 | 18 | 51 | 38 | 48 | 95 | kinase still bound, per cent of control (PTK2 (human)): 0%; kinase still bound, per cent of control [1]: 6.8%; kinase still bound, per cent of control (ULK1 (human)): 1%; kinase still bound, per cent of control (ACVR2A (human)): 30%; kinase still bound, per cent of control (CSNK1E (human)): 100%; kinase still bound, per cent of control (ROS1 (human)): 1.1%; kinase still bound, per cent of control (PLK4 (human)): 0.1%; kinase still bound, per cent of control (FGFR1 (human)): 46%; kinase still bound, per cent of control (MAPK8 (human)): 100%; kinase still bound, per cent of control (MAP2K6 (human)): 54%; kinase still bound, per cent of control (MYO3B (human)): 100%; kinase still bound, per cent of control (PRKACB (human)): 100%; kinase still bound, per cent of control (SGK3 (human)): 100%; kinase still bound, per cent of control (CDK15 (human)): 73%; kinase still bound, per cent of control (GRK4 (human)): 14%; kinase still bound, per cent of control (ITK (human)): 33%
3 | COc1cc2ncn(-c3cc(OCc4ccccc4C(F)(F)F)c(C(N)=O)s3)c2cc1OC | 77 | 48 | 90 | 60 | 36 | 83 | 87 | 100 | 36 | 4.2 | 0.25 | 31 | 77 | 68 | 72 | 63 | 32 | 76 | 99 | 100 | kinase still bound, per cent of control (MAP4K4 (human)): 53%; kinase still bound, per cent of control [2]: 62%; kinase still bound, per cent of control (PTK2 (human)): 83%; kinase still bound, per cent of control (TESK1 (human)): 73%; kinase still bound, per cent of control (SYK (human)): 72%; kinase still bound, per cent of control (ULK1 (human)): 92%; kinase still bound, per cent of control (ACVR2A (human)): 79%; kinase still bound, per cent of control (CSNK1E (human)): 77%; kinase still bound, per cent of control (ROS1 (human)): 78%; kinase still bound, per cent of control (PLK4 (human)): 29%; kinase still bound, per cent of control (FGFR1 (human)): 43%; kinase still bound, per cent of control (MAPK8 (human)): 100%; kinase still bound, per cent of control (MAP2K6 (human)): 85%; kinase still bound, per cent of control (MYO3B (human)): 100%; kinase still bound, per cent of control (PRKACB (human)): 100%; kinase still bound, per cent of control (SGK3 (human)): 83%; kinase still bound, per cent of control (MAP4K3 (human)): 32%; kinase still bound, per cent of control (GRK4 (human)): 18%; kinase still bound, per cent of control (ITK (human)): 98%
4 | COCC(=O)NC/C=C/c1ccc2ncnc(Nc3ccc(Oc4ccc(C)nc4)c(C)c3)c2c1 | 100 | 100 | 91 | 92 | 100 | 98 | 100 | 100 | 86 | 100 | 60 | 100 | 100 | 100 | 84 | 77 | 89 | 100 | 100 | 81 | kinase still bound, per cent of control (MAP4K4 (human)): 97%; kinase still bound, per cent of control (TESK1 (human)): 75%; kinase still bound, per cent of control (SYK (human)): 100%; kinase still bound, per cent of control (ULK1 (human)): 47%; kinase still bound, per cent of control (ACVR2A (human)): 100%; kinase still bound, per cent of control (CSNK1E (human)): 100%; kinase still bound, per cent of control (ROS1 (human)): 100%; kinase still bound, per cent of control (PLK4 (human)): 74%; kinase still bound, per cent of control (FGFR1 (human)): 100%; kinase still bound, per cent of control (MAPK8 (human)): 66%; kinase still bound, per cent of control (MAP2K6 (human)): 93%; kinase still bound, per cent of control (MYO3B (human)): 100%; kinase still bound, per cent of control (PRKACB (human)): 100%; kinase still bound, per cent of control (SGK3 (human)): 100%; kinase still bound, per cent of control (MAP4K3 (human)): 80%; kinase still bound, per cent of control (CDK15 (human)): 71%; kinase still bound, per cent of control (GRK4 (human)): 100%; kinase still bound, per cent of control (ITK (human)): 92%

Reference: the kinase profiling compilation of Christmann-Franck et al. (2016)
